Assay results reported in patent publication US11964974B1, “Imidazo[1,2-c]pyrido[3,4-e]pyrimidine-3-carboxylic acids as CK2 inhibitors” (KING FAISAL UNIVERSITY, priority 2024, dated 2024).

Columns and labels:
PC3 (prostate) = assay: In vitro cytotoxic activity assay (MTT), PC3; type: cell-based; conditions: Homo sapiens, Prostate cell; PC3 (prostate) cells, exposed for 96 hours; read-out: Cytotoxicity activity IC50
Procedure: (§1) Compounds 1-16 were screened for their in vitro cytotoxic activity utilizing a 3-(4,5-dimethyl-thiazol-2-yl)-2,5-diphenyltetrazolium bromide (MTT) assay against selected cancer human cell lines consisting of PC3 (prostate), HCT116 (colon), A375 (melanoma), H1299 (lung), MIAPaCa-2 (pancreas), HL60 (leukemia), MCF7 (breast), MDA-MB-231 (breast) (T. Mosmann, J. Immunol. Meth., 1983, 65, 55-63). The cells were cultured at 37° C. in RMPI1640 medium supplemented with 10% fetal bovine serum, 50 IU/mL penicillin, and 50 μg/mL streptomycin in a 5% CO2 incubator. All cells were sub-cultured 3 times/week by trypsinisation. Viable cells were seeded and allowed to adhere for 12 hours before a test drug was added in 96-well plates at an initial density of 1.0×10^5 cells/mL. Tumor cell lines were separately exposed to various concentrations of the tested compounds followed by incubation at a temperature of 37° C. during 96 hours inside a medium of fresh RMPI 1640. Cells were subsequently incubated at 37° C. using MTT at 0.5 mg/mL during 4 hours. After removal of supernatant, formazan crystals were dissolved in isopropanol and the optical density was measured at 570 nm. CX-4945 was used as a positive control.

HCT116 (colon) = assay: In vitro cytotoxic activity assay (MTT), HCT116; type: cell-based; conditions: Homo sapiens, HCT-116; HCT116 (colon) cells, exposed for 96 hours; read-out: Cytotoxicity activity IC50
Procedure: as §1

A375 (melanoma) = assay: In vitro cytotoxic activity assay (MTT), A375; type: cell-based; conditions: Homo sapiens, A-375; A375 (melanoma) cells, exposed for 96 hours; read-out: Cytotoxicity activity IC50
Procedure: as §1

H1299 (lung) = assay: In vitro cytotoxic activity assay (MTT), H1299; type: cell-based; conditions: Homo sapiens, NCI-H1299; H1299 (lung) cells, exposed for 96 hours; read-out: Cytotoxicity activity IC50
Procedure: as §1

MIAPaCa-2 (pancreas) = assay: In vitro cytotoxic activity assay (MTT), MIAPaCa-2; type: cell-based; conditions: Homo sapiens, MIA PaCa-2; MIAPaCa-2 (pancreas) cells, exposed for 96 hours; read-out: Cytotoxicity activity IC50
Procedure: as §1

HL60 (leukemia) = assay: In vitro cytotoxic activity assay (MTT), HL60; type: cell-based; conditions: Homo sapiens, HL-60; HL60 (leukemia) cells, exposed for 96 hours; read-out: Cytotoxicity activity IC50
Procedure: as §1

MCF7 (breast) = assay: In vitro cytotoxic activity assay (MTT), MCF7; type: cell-based; conditions: Homo sapiens; MCF7 (breast) cells, exposed for 96 hours; read-out: Cytotoxicity activity IC50
Procedure: as §1

MDA-MB-231 (breast) = assay: In vitro cytotoxic activity assay (MTT), MDA-MB-231; type: cell-based; conditions: Homo sapiens; MDA-MB-231 (breast) cells, exposed for 96 hours; read-out: Cytotoxicity activity IC50
Procedure: as §1

[1] = target: T1, recombinant human CK2 (RRββ-holoenzyme) (Homo sapiens, UniProt P68400); assay: CK2 Kinase Assay (radiometric, [γ-33P]ATP); type: biochemical; conditions: final ATP concentration 15 μM, 10 min at 30° C.; read-out: protein kinase CK2 inhibition IC50
T1 construct: purchased Millipore
Procedure: CK2 Kinase Assay was conducted using the protocol as described in Pierre F. et al; J. Med. Chem. 2011, 54, 635-654. The tested compounds in aqueous solution were added at a volume of 10 μL to a reaction mixture comprising 10 μL of assay dilution buffer (ADB; 20 mM MOPS, pH 7.2, 25 mM β-glycerol phosphate, 5 mM EGTA, 1 mM sodium orthovanadate, and 1 mM dithiothreitol), 10 μL of substrate peptide (RRRDDDSDDD, dissolved in ADB at a concentration of 1 mM), 10 μL of recombinant human CK2 (RRββ-holoenzyme, 25 ng dissolved in ADB; Millipore). Reactions were initiated by the addition of 10 μL of ATP solution (90% 75 mMMgCl2, 75 μM ATP (final ATP concentration: 15 μM) dissolved in ADB; 10% [γ-33P] ATP (stock 1 mCi/100 μL; 3000 Ci/mmol (Perkin-Elmer) and maintained for 10 min at 30° C. The reactions were quenched with 100 μL of 0.75% phosphoric acid and then transferred to and filtered through a phosphor cellulose filter plate (Millipore). After washing each well five times with 0.75% phosphoric acid, the plate was dried under vacuum for 5 min and, following the addition of 15 μL of scintillation fluid to each well, the residual radioactivity was measured using a Wallac luminescence counter. The IC50 values were derived from eight concentrations of test inhibitors.

T1 sequence (P68400 whole entry): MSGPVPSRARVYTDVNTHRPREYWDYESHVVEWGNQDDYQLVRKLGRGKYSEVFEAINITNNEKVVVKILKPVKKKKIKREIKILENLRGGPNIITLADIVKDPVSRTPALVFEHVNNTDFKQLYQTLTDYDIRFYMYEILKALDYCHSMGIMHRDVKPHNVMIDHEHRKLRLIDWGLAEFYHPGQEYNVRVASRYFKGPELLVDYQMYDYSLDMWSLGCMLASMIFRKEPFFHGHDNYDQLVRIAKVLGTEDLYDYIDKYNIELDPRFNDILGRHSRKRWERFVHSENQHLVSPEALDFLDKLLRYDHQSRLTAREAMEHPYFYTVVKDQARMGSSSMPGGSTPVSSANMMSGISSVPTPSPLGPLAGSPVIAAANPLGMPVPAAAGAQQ
T1 sequence (P67870 whole entry partner): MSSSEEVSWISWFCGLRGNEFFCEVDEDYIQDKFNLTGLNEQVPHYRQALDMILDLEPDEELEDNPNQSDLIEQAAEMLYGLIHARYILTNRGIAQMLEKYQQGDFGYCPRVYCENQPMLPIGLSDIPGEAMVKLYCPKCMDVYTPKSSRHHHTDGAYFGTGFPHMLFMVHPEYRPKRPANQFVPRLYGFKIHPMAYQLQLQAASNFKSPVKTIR

O=C(O)c1cnc2c3cnccc3nc(Nc3cccc(Cl)c3)n12 [Compound 1, 5-((3-chlorophenyl)amino)imidazo[1,2-c]pyrido[3,4-e]pyrimidine-3-carboxylic acid] showed an IC50 (PC3 (prostate)) of 1.8 µM, an IC50 (HCT116 (colon)) of 3.2 µM and an IC50 (A375 (melanoma)) of 5.6 µM. For the same compound, the IC50 (H1299 (lung)) was 2.9 µM, the IC50 (MIAPaCa-2 (pancreas)) was 1.6 µM and the IC50 (HL60 (leukemia)) was 6.7 µM. The IC50 (MCF7 (breast)) was 5.3 µM, the IC50 (MDA-MB-231 (breast)) was 4.9 µM and the IC50 [1] was 0.035 µM.
